pEC50, pIC50: −log10 of the molar value.
Tests used:
Falcipain 2 = target: T1, Falcipain 2 (Plasmodium falciparum, UniProt Q9N6S8); test: Inhibitory concentration against falcipain-2 of Plasmodium falciparum W2
T1 sequence (Q9N6S8 whole entry): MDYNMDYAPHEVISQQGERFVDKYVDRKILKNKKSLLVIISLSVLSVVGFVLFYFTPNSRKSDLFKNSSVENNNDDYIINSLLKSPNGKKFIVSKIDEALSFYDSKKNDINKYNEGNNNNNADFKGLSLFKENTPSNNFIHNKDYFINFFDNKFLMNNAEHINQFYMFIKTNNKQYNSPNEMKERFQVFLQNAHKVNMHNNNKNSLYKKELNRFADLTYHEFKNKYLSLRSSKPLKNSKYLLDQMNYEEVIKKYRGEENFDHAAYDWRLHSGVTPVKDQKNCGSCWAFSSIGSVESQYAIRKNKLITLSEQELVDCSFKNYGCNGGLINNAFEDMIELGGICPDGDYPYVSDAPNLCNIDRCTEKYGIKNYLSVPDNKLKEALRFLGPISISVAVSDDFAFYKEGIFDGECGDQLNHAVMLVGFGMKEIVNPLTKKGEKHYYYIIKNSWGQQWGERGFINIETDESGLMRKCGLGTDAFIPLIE

Rhodesain = Rhodesain (Trypanosoma brucei rhodesiense, UniProt Q95PM0); test: Inhibitory concentration against rhodesain of Trypanosoma brucei rhodesience
Sequence of Rhodesain (Q95PM0 whole entry): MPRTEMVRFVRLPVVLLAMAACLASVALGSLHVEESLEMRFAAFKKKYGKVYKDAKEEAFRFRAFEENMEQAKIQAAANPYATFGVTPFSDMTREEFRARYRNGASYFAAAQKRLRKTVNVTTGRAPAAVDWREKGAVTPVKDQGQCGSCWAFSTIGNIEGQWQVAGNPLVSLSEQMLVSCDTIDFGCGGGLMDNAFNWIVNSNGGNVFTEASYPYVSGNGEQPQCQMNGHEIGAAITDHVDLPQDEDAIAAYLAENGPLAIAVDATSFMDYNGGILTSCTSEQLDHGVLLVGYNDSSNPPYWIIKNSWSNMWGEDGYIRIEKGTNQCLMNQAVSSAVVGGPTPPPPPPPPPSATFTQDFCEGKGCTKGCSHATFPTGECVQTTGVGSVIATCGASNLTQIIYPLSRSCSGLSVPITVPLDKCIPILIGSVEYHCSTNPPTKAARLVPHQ

Cruzipain = Cruzipain (Trypanosoma cruzi, UniProt P25779); test: Inhibitory concentration against cruzain of Trypanosoma cruzi
Sequence of Cruzipain (P25779 whole entry): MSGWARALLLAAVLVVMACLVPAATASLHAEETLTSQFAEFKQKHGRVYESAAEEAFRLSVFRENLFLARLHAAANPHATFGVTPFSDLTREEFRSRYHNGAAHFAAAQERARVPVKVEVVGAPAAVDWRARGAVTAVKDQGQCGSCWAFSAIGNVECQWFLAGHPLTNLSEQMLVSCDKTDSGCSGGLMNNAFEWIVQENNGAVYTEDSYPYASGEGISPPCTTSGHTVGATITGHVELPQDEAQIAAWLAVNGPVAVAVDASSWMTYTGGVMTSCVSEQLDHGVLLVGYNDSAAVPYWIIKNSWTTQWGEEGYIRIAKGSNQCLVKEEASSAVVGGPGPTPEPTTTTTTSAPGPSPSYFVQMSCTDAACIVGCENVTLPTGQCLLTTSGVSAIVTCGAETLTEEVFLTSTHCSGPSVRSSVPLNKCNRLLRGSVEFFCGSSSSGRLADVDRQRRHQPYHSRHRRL

Plasmodium falciparum [1] = test: Effective dose against Plasmodium falciparum W2; format: functional; conditions: read-out: ED50 (the source's name)
[2] = tested on: Trypanosoma brucei rhodesiense; test: Effective dose to inhibit proliferation of Trypanosoma brucei rhodesiense in cell assay; format: functional; conditions: read-out: ED50 (the source's name)
Plasmodium falciparum [3] = test: Effective dose against Plasmodium falciparum W2; Not active; format: functional; conditions: read-out: ED50 (the source's name)
Trypanosoma cruzi = test: Effective dose to inhibit proliferation of Trypanosoma cruzi in cell assay; format: functional; conditions: read-out: ED50 (the source's name)

| SMILES | pIC50 (Falcipain 2) | pIC50 (Rhodesain) | pIC50 (Cruzipain) | pEC50 (Plasmodium falciparum [1]) | pEC50 [2] | pEC50 (Plasmodium falciparum [3]) | pEC50 (Trypanosoma cruzi) |
| --- | --- | --- | --- | --- | --- | --- | --- |
| N/C(S)=N/N=C(/c1ccc(Cl)c(Cl)c1)C1CCCCC1 | 4.85 | 5.96 | 5.52 |  |  |  |  |
| CC/C(=N\N=C(\N)S)c1ccc(Cl)c(Cl)c1 |  | 6.96 | 7.52 |  |  |  |  |
| Cc1ccc(/C(=N\N=C(\N)S)c2ccc(Cl)c(Cl)c2)cc1 | 5.74 | 7.42 | 7.40 |  |  |  |  |
| N/C(S)=N/N=C(\Cc1ccccc1)c1ccc(Cl)c(Cl)c1 | 5.08 | 7.10 | 7.10 | 4.72 |  |  |  |
| CC(C)(C)/C(=N\N=C(\N)S)c1ccc(Cl)c(Cl)c1 |  | 5.48 | < 5.00 |  |  |  |  |
| N/C(S)=N/N=C(\C=C\c1ccccc1)c1ccc(Cl)c(Cl)c1 | 6.33 | 7.42 | 7.52 |  | 7.14 | 5.05 |  |
| N/C(S)=N/N=C(\CCc1ccccc1)c1ccc(Cl)c(Cl)c1 | 5.59 | 7.05 | 7.40 |  | 7.16 |  |  |
| CCCC/C(=N\NC(N)=S)c1ccc(Cl)c(Cl)c1 | 6.21 | 7.22 | 7.72 |  | 6.89 |  | 5.52 |
| N/C(S)=N/N=C(\COc1ccccc1)c1ccc(Cl)c(Cl)c1 | 6.43 | 7.15 | 7.52 |  | 5.82 |  |  |
| N/C(S)=N/N=C(/c1ccc(Cl)c(Cl)c1)C1CC1c1ccccc1 (configuration not stated) | 6.19 | 7.22 | 7.52 |  | 6.24 |  |  |
| CC/C(=N\NC(N)=S)c1cccc(Br)c1 |  | 6.64 |  |  |  |  |  |

Source: ChEMBL document CHEMBL1144459, “Discovery of potent thiosemicarbazone inhibitors of rhodesain and cruzain” (Bioorg Med Chem Lett, 2005)
